From US9359358B2, “Cyclohexyl azetidine derivatives as JAK inhibitors” (Incyte Holdings Corporation, priority 2011, dated 2016)
Where a name gives a salt, the structure may show the parent alone.

Key:
human JAK1 = molecular target: T1, human JAK1 (Homo sapiens, UniProt P23458); assay: In Vitro JAK Kinase Assay (HTRF, phosphorylation of a biotinylated peptide), JAK1; assay type: biochemical; conditions: Table 4; catalytic domain a.a. 837-1142, assay of Example A
T1 construct: human JAK1 (a.a. 837-1142); His tag (N); made in house; host or cells: insect cells (baculovirus)
T1 sequence (P23458 849-1154): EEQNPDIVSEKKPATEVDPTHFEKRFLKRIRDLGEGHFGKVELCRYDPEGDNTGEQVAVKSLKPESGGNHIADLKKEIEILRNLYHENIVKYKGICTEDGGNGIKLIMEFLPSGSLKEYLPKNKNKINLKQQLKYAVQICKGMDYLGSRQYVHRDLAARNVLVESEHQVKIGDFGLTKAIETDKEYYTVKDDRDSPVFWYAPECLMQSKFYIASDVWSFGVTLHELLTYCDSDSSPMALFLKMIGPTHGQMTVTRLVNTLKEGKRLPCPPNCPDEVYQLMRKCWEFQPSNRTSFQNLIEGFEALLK
In short: (§1)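 HTRF detection (SA-APC plus Eu-labeled anti-phosphotyrosine Py20, 40 min after EDTA stop) quantified biotinylated-peptide phosphorylation. Kinase reactions with human JAK1 or JAK2 catalytic domains lasted 1 h at room temperature.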

human JAK2 = molecular target: T2, human JAK2 (Homo sapiens, UniProt O60674); assay: In Vitro JAK Kinase Assay (HTRF, phosphorylation of a biotinylated peptide), JAK2; assay type: biochemical; conditions: Table 4; assay of Example A
T2 construct: JAK2 (a.a. 828-1132); His tag (N); made in house; host or cells: insect cells (baculovirus)
T2 sequence (O60674 828-1132): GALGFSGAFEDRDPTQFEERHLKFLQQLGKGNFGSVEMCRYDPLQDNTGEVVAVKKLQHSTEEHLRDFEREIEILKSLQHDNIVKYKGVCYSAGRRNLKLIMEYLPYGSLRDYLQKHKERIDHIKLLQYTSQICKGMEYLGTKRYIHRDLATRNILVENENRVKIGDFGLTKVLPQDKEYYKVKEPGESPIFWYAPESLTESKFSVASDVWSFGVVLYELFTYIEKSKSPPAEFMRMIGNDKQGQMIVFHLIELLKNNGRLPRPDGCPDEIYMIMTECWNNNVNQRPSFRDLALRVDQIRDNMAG
In short: as §1

SMILES	IC50 (human JAK1)	JAK2/JAK1 IC50 ratio (human JAK2)
N#CCC1(n2cc(-c3ncnc4[nH]ccc34)cn2)CN([C@H]2CC[C@@H](Oc3cc(CN4CCC[C@@H]4CO)nc(C(F)(F)F)n3)CC2)C1 [Example 29, {1-(cis-4-{[6-{[(2S)-2-(hydroxymethyl)pyrrolidin-1-yl]methyl}-2-(trifluoromethyl)pyrimidin-4-yl]oxy}cyclohexyl)-3-[4-(7H-pyrrolo[2,3-d]pyrimidin-4-yl)-1H-pyrazol-1-yl]azetidin-3-yl}acetonitrile tris(trifluoroacetate) (salt)]	< 10 nM	≧10
N#CCC1(n2cc(-c3ncnc4[nH]ccc34)cn2)CN([C@H]2CC[C@@H](Oc3cc(CN4CC[C@H](F)C4)nc(C(F)(F)F)n3)CC2)C1 [Example 31, {1-(cis-4-{[6-{[(3S)-3-fluoropyrrolidin-1-yl]methyl}-2-(trifluoromethyl)pyrimidin-4-yl]oxy}cyclohexyl)-3-[4-(7H-pyrrolo[2,3-d]pyrimidin-4-yl)-1H-pyrazol-1-yl]azetidin-3-yl}acetonitrile tris(trifluoroacetate)]	< 10 nM	≧10
CCCNCc1cc(O[C@H]2CC[C@@H](N3CC(CC#N)(n4cc(-c5ncnc6[nH]ccc56)cn4)C3)CC2)nc(C(F)(F)F)n1.O=C(O)C(F)(F)F.O=C(O)C(F)(F)F.O=C(O)C(F)(F)F [Example 32, {1-(cis-4-{[6-[(propylamino)methyl]-2-(trifluoromethyl)pyrimidin-4-yl]oxy}cyclohexyl)-3-[4-(7H-pyrrolo[2,3-d]pyrimidin-4-yl)-1H-pyrazol-1-yl]azetidin-3-yl}acetonitrile tris(trifluoroacetate)]	< 10 nM	≧10
N#CCC1(n2cc(-c3ncnc4[nH]ccc34)cn2)CN([C@H]2CC[C@@H](Oc3cc(CNCC(O)CO)nc(C(F)(F)F)n3)CC2)C1 (stereo partly drawn) [Example 33, {1-(cis-4-{[6-{[(2,3-dihydroxypropyl)amino]methyl}-2-(trifluoromethyl)pyrimidin-4-yl]oxy}cyclohexyl)-3-[4-(7H-pyrrolo[2,3-d]pyrimidin-4-yl)-1H-pyrazol-1-yl]azetidin-3-yl}acetonitrile tris(trifluoroacetate) (salt)]	< 10 nM	≧10
CCCCNCc1cc(O[C@H]2CC[C@@H](N3CC(CC#N)(n4cc(-c5ncnc6[nH]ccc56)cn4)C3)CC2)nc(C(F)(F)F)n1.O=C(O)C(F)(F)F.O=C(O)C(F)(F)F.O=C(O)C(F)(F)F [Example 34, {1-(cis-4-{[6-[(butylamino)methyl]-2-(trifluoromethyl)pyrimidin-4-yl]oxy}cyclohexyl)-3-[4-(7H-pyrrolo[2,3-d]pyrimidin-4-yl)-1H-pyrazol-1-yl]azetidin-3-yl}acetonitrile tris(trifluoroacetate)]	< 10 nM	≧10
CCCCN(C)Cc1cc(O[C@H]2CC[C@@H](N3CC(CC#N)(n4cc(-c5ncnc6[nH]ccc56)cn4)C3)CC2)nc(C(F)(F)F)n1.O=C(O)C(F)(F)F.O=C(O)C(F)(F)F.O=C(O)C(F)(F)F [Example 36, {1-(cis-4-{[6-{[butyl(methyl)amino]methyl}-2-(trifluoromethyl)pyrimidin-4-yl]oxy}cyclohexyl)-3-[4-(7H-pyrrolo[2,3-d]pyrimidin-4-yl)-1H-pyrazol-1-yl]azetidin-3-yl}acetonitrile tris(trifluoroacetate)]	< 10 nM	≧10
N#CCC1(n2cc(-c3ncnc4[nH]ccc34)cn2)CN([C@H]2CC[C@@H](Oc3cc(CN4CC(F)C4)nc(C(F)(F)F)n3)CC2)C1 [Example 37, {1-(cis-4-{[6-[(3-fluoroazetidin-1-yl)methyl]-2-(trifluoromethyl)pyrimidin-4-yl]oxy}cyclohexyl)-3-[4-(7H-pyrrolo[2,3-d]pyrimidin-4-yl)-1H-pyrazol-1-yl]azetidin-3-yl}acetonitrile tris(trifluoroacetate)]	< 10 nM	≧10
COCCN(C)Cc1cc(O[C@H]2CC[C@@H](N3CC(CC#N)(n4cc(-c5ncnc6[nH]ccc56)cn4)C3)CC2)nc(C(F)(F)F)n1.O=C(O)C(F)(F)F.O=C(O)C(F)(F)F.O=C(O)C(F)(F)F [Example 42, {1-(cis-4-{[6-{[(2-methoxyethyl)(methyl)amino]methyl}-2-(trifluoromethyl)pyrimidin-4-yl]oxy}cyclohexyl)-3-[4-(7H-pyrrolo[2,3-d]pyrimidin-4-yl)-1H-pyrazol-1-yl]azetidin-3-yl}acetonitrile tris(trifluoroacetate)]	< 10 nM	≧10

Results, then the compound that gave them:

IC50 (human JAK1)	JAK2/JAK1 IC50 ratio (human JAK2)	SMILES
< 10 nM	≧10	N#CCC1(n2cc(-c3ncnc4[nH]ccc34)cn2)CN([C@H]2CC[C@@H](Oc3cc(CNCC4(CO)CC4)nc(C(F)(F)F)n3)CC2)C1 [Example 38, {1-(cis-4-{[6-[({[1-(hydroxymethyl)cyclopropyl]methyl}-amino)methyl]-2-(trifluoromethyl)pyrimidin-4-yl]oxy}cyclohexyl)-3-[4-(7H-pyrrolo[2,3-d]pyrimidin-4-yl)-1H-pyrazol-1-yl]azetidin-3-yl}acetonitrile tris(trifluoroacetate) (salt)]
< 10 nM	≧10	COCCCNCc1cc(O[C@H]2CC[C@@H](N3CC(CC#N)(n4cc(-c5ncnc6[nH]ccc56)cn4)C3)CC2)nc(C(F)(F)F)n1 [Example 40, {1-(cis-4-{[6-{[(3-methoxypropyl)amino]methyl}-2-(trifluoromethyl)pyrimidin-4-yl]oxy}cyclohexyl)-3-[4-(7H-pyrrolo[2,3-d]pyrimidin-4-yl)-1H-pyrazol-1-yl]azetidin-3-yl}acetonitrile tris(trifluoroacetate)]
< 10 nM	≧10	COCC(C)NCc1cc(O[C@H]2CC[C@@H](N3CC(CC#N)(n4cc(-c5ncnc6[nH]ccc56)cn4)C3)CC2)nc(C(F)(F)F)n1 (stereo partly drawn) [Example 41, {1-(cis-4-{[6-{[(2-methoxy-1-methylethyl)amino]methyl}-2-(trifluoromethyl)pyrimidin-4-yl]oxy}cyclohexyl)-3-[4-(7H-pyrrolo[2,3-d]pyrimidin-4-yl)-1H-pyrazol-1-yl]azetidin-3-yl}acetonitrile tris(trifluoroacetate)]
< 10 nM	≧10	CC(C)(O)c1cc(O[C@H]2CC[C@@H](N3CC(CC#N)(n4cc(-c5ncnc6[nH]ccc56)cn4)C3)CC2)nc(C(F)(F)F)n1 [Example 43, {1-(cis-4-{[6-(1-Hydroxy-1-methylethyl)-2-(trifluoromethyl)pyrimidin-4-yl]oxy}cyclohexyl)-3-[4-(7H-pyrrolo[2,3-d]pyrimidin-4-yl)-1H-pyrazol-1-yl]azetidin-3-yl}acetonitrile bis(trifluoroacetate)]
< 10 nM	≧10	CC(C)(C)NCc1cc(O[C@H]2CC[C@@H](N3CC(CC#N)(n4cc(-c5ncnc6[nH]ccc56)cn4)C3)CC2)nc(C(F)(F)F)n1 [Example 44, {1-(cis-4-{[6-[(tert-Butylamino)methyl]-2-(trifluoromethyl)pyrimidin-4-yl]oxy}cyclohexyl)-3-[4-(7H-pyrrolo[2,3-d]pyrimidin-4-yl)-1H-pyrazol-1-yl]azetidin-3-yl}acetonitrile tetrakis(trifluoroacetate)]
< 10 nM	≧10	N#CCC1(n2cc(-c3ncnc4[nH]ccc34)cn2)CN([C@H]2CC[C@@H](Oc3cc(CCO)nc(C(F)(F)F)n3)CC2)C1 [Example 45, {1-(cis-4-{[6-(2-hydroxyethyl)-2-(trifluoromethyl)pyrimidin-4-yl]oxy}cyclohexyl)-3-[4-(7H-pyrrolo[2,3-d]pyrimidin-4-yl)-1H-pyrazol-1-yl]azetidin-3-yl}acetonitrile tris(trifluoroacetate)]
< 10 nM	≧10	CN(C)C(=O)c1cc(O[C@H]2CC[C@@H](N3CC(CC#N)(n4cc(-c5ncnc6[nH]ccc56)cn4)C3)CC2)nc(C(F)(F)F)n1 [Example 46, 6-[(cis-4-{3-(cyanomethyl)-3-[4-(7H-pyrrolo[2,3-d]pyrimidin-4-yl)-1H-pyrazol-1-yl]azetidin-1-yl}cyclohexyl)oxy]-N,N-dimethyl-2-(trifluoromethyl)pyrimidine-4-carboxamide bis(trifluoroacetate)]
< 10 nM	≧10	CCN(C)C(=O)c1cc(O[C@H]2CC[C@@H](N3CC(CC#N)(n4cc(-c5ncnc6[nH]ccc56)cn4)C3)CC2)nc(C(F)(F)F)n1 [Example 48, 6-[(cis-4-{3-(cyanomethyl)-3-[4-(7H-pyrrolo[2,3-d]pyrimidin-4-yl)-1H-pyrazol-1-yl]azetidin-1-yl}cyclohexyl)oxy]-N-ethyl-N-methyl-2-(trifluoromethyl)pyrimidine-4-carboxamide bis(trifluoroacetate)]
< 10 nM	≧10	CCNC(=O)c1cc(O[C@H]2CC[C@@H](N3CC(CC#N)(n4cc(-c5ncnc6[nH]ccc56)cn4)C3)CC2)nc(C(F)(F)F)n1 [Example 49, 6-[(cis-4-{3-(cyanomethyl)-3-[4-(7H-pyrrolo[2,3-d]pyrimidin-4-yl)-1H-pyrazol-1-yl]azetidin-1-yl}cyclohexyl)oxy]-N-ethyl-2-(trifluoromethyl)pyrimidine-4-carboxamide bis(trifluoroacetate)]
< 10 nM	≧10	COCCNC(=O)c1cc(O[C@H]2CC[C@@H](N3CC(CC#N)(n4cc(-c5ncnc6[nH]ccc56)cn4)C3)CC2)nc(C(F)(F)F)n1 [Example 50, 6-[(cis-4-{3-(cyanomethyl)-3-[4-(7H-pyrrolo[2,3-d]pyrimidin-4-yl)-1H-pyrazol-1-yl]azetidin-1-yl}cyclohexyl)oxy]-N-(2-methoxyethyl)-2-(trifluoromethyl)pyrimidine-4-carboxamide bis(trifluoroacetate)]
